From PubChem BioAssay (NCI)
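48-hour exposure; five concentrations; linearly interpolated endpoints. TGI denotes the concentration required for complete inhibition of growth.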

Experiments:
Experiment in all cases: NCI-60 cell line screen, 48 h
[1] = tested on: A498 renal
[2] = tested on: CAKI-1 renal
[3] = tested on: CCRF-CEM leukemia
[4] = tested on: HL-60(TB) leukemia
[5] = tested on: IGROV1 ovarian
[6] = tested on: KM12 colon
[7] = tested on: M14 melanoma
[8] = tested on: MDA-MB-231 breast
[9] = tested on: NCI-H460 lung
[10] = tested on: NCI/ADR-RES ovarian
[11] = tested on: RXF 393 renal
[12] = tested on: SF-268 CNS
[13] = tested on: SF-539 CNS
[14] = tested on: SK-MEL-28 melanoma
[15] = tested on: SNB-19 CNS
[16] = tested on: SW-620 colon
[17] = tested on: TK-10 renal
[18] = tested on: U251 CNS
[19] = tested on: UO-31 renal
[20] = tested on: HCC-2998 colon

SMILES	TGI [1]	TGI [2]	TGI [3]	TGI [4]	TGI [5]	TGI [6]	TGI [7]	TGI [8]	TGI [9]	TGI [10]	TGI [11]	TGI [12]	TGI [13]	TGI [14]	TGI [15]	TGI [16]	TGI [17]	TGI [18]	TGI [19]	TGI [20]
CN(CC(=O)O)c1ncc2c(n1)C=CCC2	> 100 µM	> 100 µM	> 100 µM	> 100 µM	> 100 µM	> 100 µM	> 100 µM	> 100 µM	> 100 µM	> 100 µM	> 100 µM	> 100 µM	> 100 µM	> 100 µM	> 100 µM	> 100 µM	> 100 µM	> 100 µM	> 100 µM	
COC(=O)/C=C\C(C#N)(C#N)N=Cc1cccc(OC)c1	34.7 µM	5.17 µM	> 50.8 µM	> 100 µM	24 µM	32.6 µM	10.4 µM	29 µM	40.8 µM	35.7 µM	9.62 µM	33.4 µM	7.83 µM	29.4 µM	46.3 µM	5.68 µM	4.78 µM	32.2 µM	8.46 µM	34.4 µM
CCCCCCCCCCCCOP(=O)(O)OP(=O)(O)OCC1OC(n2ccc(N)nc2=O)CC1O (centres undefined)	> 100 µM	> 100 µM	> 100 µM	> 100 µM	> 100 µM	> 100 µM	> 100 µM	> 100 µM	> 100 µM	> 100 µM	> 100 µM	> 100 µM	> 100 µM	> 100 µM	> 100 µM	> 100 µM	> 100 µM	> 100 µM	> 100 µM	> 100 µM
COC(=O)C1Cc2ccc(O)c(O)c2CN1 (centres undefined)	> 100 µM	> 100 µM	> 100 µM	72.6 µM	> 100 µM	> 100 µM	29.7 µM	43.3 µM	> 100 µM	48.6 µM	> 100 µM		32.5 µM	31 µM	> 100 µM	40.7 µM	> 100 µM	31.2 µM	51.8 µM	> 100 µM
Cc1nc(SCC(=O)Nc2ccc(Cl)cc2)c2sc(=S)n(-c3ccccc3)c2n1	> 10 µM	> 10 µM	> 10 µM	> 10 µM	> 10 µM	> 10 µM	> 10 µM	> 10 µM	> 10 µM	> 10 µM	> 10 µM	> 10 µM	> 10 µM	> 10 µM	> 10 µM	> 10 µM	> 10 µM	> 10 µM		> 10 µM
COc1cc2c(c(OC)c1OC)C(=O)[C@@H]1[C@H]2N1C(=O)NCCCl	> 100 µM	> 100 µM	> 100 µM	> 100 µM	> 100 µM	> 100 µM	> 100 µM	> 100 µM	> 100 µM	> 100 µM	> 100 µM	> 100 µM	> 100 µM	> 100 µM	> 100 µM	> 100 µM	> 100 µM	> 100 µM	> 100 µM	> 100 µM
C=CC(O)(CBr)CCC(Br)C(=C)C (centres undefined)	> 10 µM	> 10 µM	> 10 µM	> 10 µM	> 10 µM	> 10 µM	> 10 µM	> 10 µM	> 10 µM	> 10 µM	> 10 µM	> 10 µM	> 10 µM	> 10 µM	> 10 µM	> 10 µM	> 10 µM	> 10 µM		> 10 µM
CC1(c2sccc2Cl)CC(c2sccc2Cl)=C(C#N)C(=C(C#N)C#N)N1 (centres undefined)	33.3 µM	36.1 µM	> 100 µM	> 100 µM	42.4 µM	46 µM	42.7 µM	42.9 µM	43.6 µM	57.8 µM	42.4 µM	38.5 µM	36.7 µM	34.8 µM	38.5 µM	39 µM	31.6 µM	33.8 µM		29.4 µM
NC(N)=NS(=O)(=O)c1ccc(N/N=C2/CCOC2=O)cc1	> 100 µM	> 100 µM	> 100 µM	> 100 µM	> 100 µM	> 100 µM	> 100 µM	> 100 µM	> 100 µM	> 100 µM	> 100 µM	> 100 µM	> 100 µM	> 100 µM	> 100 µM	> 100 µM	> 100 µM	> 100 µM	> 100 µM	> 100 µM
O=C(Cc1ccccc1F)NC1=C(Cl)C(=O)c2ccccc2C1=O	33.4 µM	9.42 µM	7.36 µM	0.8 µM	9.25 µM	4.11 µM	7.41 µM	13.8 µM	21.7 µM	6.25 µM	0.816 µM	15.1 µM	1.93 µM	9.6 µM	25.2 µM	3.81 µM	5.29 µM	4.67 µM	8.98 µM	15.2 µM
CC12C3C4C1C1C2C3C41CO (centres undefined)	> 100 µM	> 100 µM	> 100 µM	> 100 µM	> 100 µM	> 100 µM	> 100 µM	> 100 µM	> 100 µM	> 100 µM	> 100 µM		> 100 µM	> 100 µM	> 100 µM	> 100 µM	> 100 µM	> 100 µM	> 100 µM	
COC(=O)N1CC(=O)C(C(=O)NC23CC4CC(CC(C4)C2)C3)C1 (centres undefined)	> 100 µM	> 100 µM	> 100 µM	> 100 µM	> 100 µM	> 100 µM	> 100 µM	> 100 µM	> 100 µM	> 100 µM	> 100 µM	> 100 µM	> 100 µM	> 100 µM	> 100 µM	> 100 µM	> 100 µM	> 100 µM	> 100 µM	> 100 µM
Cc1ccc(C(=O)Nc2ccc(CP(=O)(O)O)cc2)cc1NC(=O)c1cccc(N)c1	> 100 µM	> 100 µM	> 100 µM	> 100 µM	> 100 µM	> 100 µM	> 100 µM	> 100 µM		> 100 µM	> 100 µM	> 100 µM	> 100 µM	> 100 µM	> 100 µM	> 100 µM	> 100 µM	> 100 µM	> 100 µM	> 100 µM
Cc1cc(S(=O)(=O)N2CCNNC2=O)c(S)cc1Cl	> 100 µM	> 100 µM	> 100 µM	> 100 µM	> 100 µM	> 100 µM	> 100 µM	61 µM	> 100 µM	> 100 µM	40.9 µM	> 100 µM	> 100 µM	59.6 µM	> 100 µM	> 100 µM	> 100 µM	> 100 µM	> 100 µM	> 100 µM
O=C1c2ccccc2C(=O)N1CCSCC(CO)SCCN1C(=O)c2ccccc2C1=O (centres undefined)	> 100 µM	> 100 µM	> 100 µM	50.5 µM	> 100 µM	> 100 µM	> 100 µM	> 100 µM	> 100 µM	> 100 µM	> 100 µM	> 100 µM		> 100 µM	> 100 µM	> 100 µM	> 100 µM	> 100 µM	> 100 µM	> 100 µM
N#CC1(C#N)NC(c2ccccc2)C(C#N)(C#N)NC1c1ccccc1 (centres undefined)	> 100 µM	> 100 µM	> 100 µM	> 100 µM	> 100 µM	> 100 µM	> 100 µM	> 100 µM	> 100 µM	> 100 µM	> 100 µM	> 100 µM	> 100 µM	> 100 µM	> 100 µM	> 100 µM	> 100 µM	> 100 µM	> 100 µM	> 100 µM
S=C(N/N=C(\c1ccccc1)c1ccccn1)NC1CCCCC1	> 100 µM	> 100 µM	> 100 µM	> 100 µM	> 100 µM	> 100 µM	> 100 µM	> 100 µM	> 100 µM	1.59 µM	> 100 µM	> 100 µM	> 100 µM	> 100 µM	> 100 µM	> 100 µM	> 100 µM	> 100 µM	> 100 µM	> 100 µM
CCNC(=O)c1cc(Cl)ccc1NC(=O)C12CC3CC(CC(C3)C1)C2	> 100 µM	> 100 µM	> 100 µM	> 100 µM	> 100 µM	> 100 µM	> 100 µM	> 100 µM	> 100 µM	> 100 µM	43.9 µM	> 100 µM	> 100 µM	> 100 µM	> 100 µM	> 100 µM	> 100 µM	> 100 µM	56.4 µM	
COc1cc(C)c(/C=C2/N=C(c3ccccc3)OC2=O)c([N+](=O)[O-])c1OC	> 100 µM	> 100 µM	> 100 µM	> 100 µM	> 100 µM	> 100 µM	> 100 µM	> 100 µM	> 100 µM	> 100 µM	> 100 µM	> 100 µM	> 100 µM	> 100 µM	> 100 µM	> 100 µM	> 100 µM	> 100 µM		> 100 µM
CSC1(C)C(=O)Nc2c(OCc3ccccc3)cc([N+](=O)[O-])cc21 (centres undefined)	> 100 µM	> 100 µM	> 100 µM	> 100 µM	> 100 µM	> 100 µM	> 100 µM	> 100 µM	> 100 µM	> 100 µM	> 100 µM	> 100 µM	> 100 µM	> 100 µM	> 100 µM	> 100 µM	> 100 µM	37.3 µM		> 100 µM
c1cc(-c2ccc(-c3ccc(-c4ccc(-c5ccncc5)o4)cc3)o2)ccn1	> 100 µM	46.7 µM	30.2 µM	43.5 µM	35.8 µM	32.2 µM	32.2 µM	63.8 µM	35.3 µM	> 100 µM	> 100 µM	38.1 µM		44.6 µM	39.7 µM	> 100 µM	31.2 µM	35.3 µM	38 µM	33.1 µM
CC(O)C1(CNc2cc(Cl)nc(N)n2)CCCCC1 (centres undefined)	> 100 µM	> 100 µM	> 100 µM	> 100 µM	> 100 µM	> 100 µM	> 100 µM	> 100 µM	> 100 µM	> 100 µM	> 100 µM	> 100 µM	> 100 µM	> 100 µM	> 100 µM	> 100 µM	> 100 µM	> 100 µM	> 100 µM	
Cc1ccc(C2(c3ccc(Cl)cc3)c3ccccc3C3=NCCN32)cc1 (centres undefined)	20 µM	37.9 µM	19.5 µM	23.9 µM	14.9 µM	22.8 µM	16.2 µM	19.4 µM	20.7 µM	24.9 µM	10.9 µM	31.5 µM		35.9 µM	28.2 µM	32.6 µM	18.5 µM	29 µM	18.1 µM	18.8 µM
COc1cc(-c2nc3ccc(N4CCN(C)CC4)cc3[nH]2)c(OC)c2[nH]c(COC(C)=O)nc12	> 100 µM	> 100 µM	> 100 µM	> 100 µM	> 100 µM	> 100 µM	35 µM	> 100 µM	> 100 µM	> 100 µM	59.4 µM	> 100 µM	> 100 µM	> 100 µM	> 100 µM	> 100 µM	> 100 µM	> 100 µM	> 100 µM	
